Assay results: ChEMBL document CHEMBL4196110, “Covalent Inhibitors of the TEC Family of Kinases and Their Methods of Use” (ACS Med Chem Lett, 2018)

target: Tyrosine-protein kinase BTK (Homo sapiens, UniProt Q06187); test: Inhibition of BTK (unknown origin) using fluorescently labeled peptide as substrate after 3 hrs by microfluidic mobility shift assay
Sequence (Q06187 whole entry): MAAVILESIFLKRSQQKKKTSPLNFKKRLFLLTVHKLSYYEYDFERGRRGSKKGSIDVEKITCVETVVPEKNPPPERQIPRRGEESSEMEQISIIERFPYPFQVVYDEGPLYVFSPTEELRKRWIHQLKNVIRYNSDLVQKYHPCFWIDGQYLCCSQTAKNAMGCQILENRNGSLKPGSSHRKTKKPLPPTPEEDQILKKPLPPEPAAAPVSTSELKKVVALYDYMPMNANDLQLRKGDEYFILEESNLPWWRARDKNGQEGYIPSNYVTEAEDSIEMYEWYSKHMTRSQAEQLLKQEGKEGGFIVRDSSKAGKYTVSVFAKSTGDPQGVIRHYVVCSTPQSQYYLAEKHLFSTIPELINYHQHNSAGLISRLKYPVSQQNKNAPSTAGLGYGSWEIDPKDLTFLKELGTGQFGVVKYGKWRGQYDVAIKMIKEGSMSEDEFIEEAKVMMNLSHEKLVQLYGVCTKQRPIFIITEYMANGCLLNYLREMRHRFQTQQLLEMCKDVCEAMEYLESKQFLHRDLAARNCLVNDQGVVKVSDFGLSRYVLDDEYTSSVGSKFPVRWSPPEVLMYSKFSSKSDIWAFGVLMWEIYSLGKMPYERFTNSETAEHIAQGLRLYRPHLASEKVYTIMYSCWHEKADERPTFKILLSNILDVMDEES

| Compound | IC50 [nM] |
| --- | --- |
| C=CC(=O)N1CC[C@]2(C1)C[C@H](n1c(NC(=O)c3ccc(C(F)F)s3)nc3cc(CN[C@@H](C)C(C)(C)C)ccc31)C2 | 4.4 |
| C=CC(=O)N1CC[C@]2(C1)C[C@H](n1c(NC(=O)c3ccc(-c4cnco4)s3)nc3cc(NC)ccc31)C2 | 0.62 |
| C=CC(=O)N1CC[C@]2(C1)C[C@H](n1c(NC(=O)c3ccc(-c4ccnc(N)c4)s3)nc3ccccc31)C2 | 0.63 |
